This passage reports GI50 and TGI results from PubChem BioAssay (NCI).

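96-well plates; 48 h exposure; 5 concentrations. Endpoints by linear interpolation between flanking doses. Not reached: highest tested concentration assigned. Here, GI50 denotes the concentration required for 50% inhibition of growth. The concentration for full growth arrest is given as TGI.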

What all share (test): NCI-60 cell line screen, 48 h
The test system of test [1] is A498 renal.
Test [2] has as its system A549 NSCLC.
The subject of test [3] is NCI-H226 lung.
Test [4] concerns NCI-H23 lung.
In test [5] the test system is NCI-H522 lung.
In test [6] the test system is OVCAR-4 ovarian.
Test [7] relates to OVCAR-8 ovarian.
Test [8] has as its system U251 CNS.
Test [9] deals with UACC-62 melanoma.
In test [10] the test system is HCC-2998 colon.

For the compound `CC(C)(C)OC(=O)N(CCCn1c2c(c3ccccc3c1=O)C(=O)c1ccccc1-2)CCN(CCCn1c2c(c3ccccc3c1=O)C(=O)c1ccccc1-2)C(=O)OC(C)(C)C`, the GI50 in test [1] was greater than 50 µM; in test [2], 25.4 µM; in test [3] it was greater than 50 µM; in test [4], greater than 50 µM; in [5], 21.3 µM; in [6], greater than 50 µM. Besides, the GI50 was 24.6 µM in test [7], 15.5 µM in test [8] and 45.3 µM in [9]. The TGI in test [1], in test [2], in test [3], in test [4], in test [5] and in test [6] was greater than 50 µM throughout. The TGI in test [7], in test [8] and in test [9] was greater than 50 µM throughout.
As for `COc1ccc(CNCCCN2C(=O)c3ccc4c5c(ccc(c35)C2=O)C(=O)N(CCCNCCCCNCCCN)C4=O)c(OC)c1OC`, the GI50 in test [1] is 5.5 µM; in test [2] it was 1.69 µM; in test [10], 1.67 µM; in test [3] it was 2.11 µM; in test [4] it was 1.35 µM; in test [6], 1.02 µM. Also, the GI50 in test [7] was 0.618 µM; in test [8], 0.63 µM; in test [9], 1.48 µM. Further, the TGI in test [1] amounted to 23.1 µM; in [2], 16.1 µM; in test [10], 4.79 µM; in [3] it was 16.4 µM; in test [4], 4.22 µM; in test [6] it was 3.08 µM. The TGI in test [7] amounted to 8.2 µM; in [8], 2.97 µM; in test [9], 4.37 µM.
With `CCCC(=O)C(CC)/C(CCC(=O)N(Cc1ccccc1)Cc1ccccc1)=N/NC(=O)C[N+](C)(C)C` (centres undefined), the TGI in [1], in [2], in test [3], in test [4], in test [5] and in test [6] was greater than 100 µM in each case. Besides, the TGI in [7] and in test [8] was greater than 100 µM each time.
As to `CCC1(c2ccncc2)CCC(=O)NC1=O` (centres undefined), the TGI in test [1], in [2], in test [10], in test [3], in test [4] and in test [6] was greater than 100 µM in each case. The TGI in [7], in test [8] and in [9] was greater than 100 µM throughout.
For the compound `S=C1SC2(CCCCCC2)NC2=C1CCCCC2`, the TGI in test [2] is greater than 100 µM; in [10], greater than 100 µM; in [3], 52.4 µM; in [4] it was greater than 100 µM; in [6] it was greater than 100 µM; in [7] it was greater than 100 µM. The TGI in test [8] and in test [9] was greater than 100 µM throughout.
On to `COC(=O)/C1=C/C2CC(/C=C(/c3ccccc3)C(=O)O1)C2`, for which the TGI in test [2] is greater than 100 µM; in test [3], 44.7 µM; in test [4], 38.4 µM; in test [5] it was 37.9 µM; in test [7], 80.6 µM; in test [8], 49.3 µM. Besides, the TGI in test [9] came out at 67.4 µM.
On to `CC(=O)c1ccc(NCn2nc(-c3ccccc3O)oc2=S)cc1`, for which the GI50 in [2] was 37.8 µM; in test [10] it was 27.8 µM; in test [3], 27.4 µM; in [4] it was 92.6 µM; in [5], greater than 100 µM; in test [7] it was greater than 100 µM. Moreover, the values for the GI50 in test [8] and in [9] were 50.8 µM and 35.8 µM, respectively. For the same compound, the TGI is greater than 100 µM in test [2]; 66.2 µM in [10]; 99.3 µM in [3]; greater than 100 µM in test [4]; greater than 100 µM in [5]; greater than 100 µM in test [7]. Besides, the TGI in test [8] and in test [9] was greater than 100 µM in each case.
On to `c1ccc2c(c1)[Se]c1ccccc1[Se]2`, for which the TGI was greater than 100 µM in [1]; greater than 100 µM in [2]; greater than 100 µM in test [3]; greater than 100 µM in [4]; greater than 100 µM in test [5]; 67.1 µM in test [6]. Besides, the TGI in [7], in test [8] and in [9] was greater than 100 µM throughout.
Consider `CC(=O)N1C(=O)C(=O)c2cc(Cl)ccc21`, for which the TGI in [1], in [2], in [10], in [3], in test [4] and in test [6] was greater than 100 µM throughout. For the same compound, the TGI in [7], in [8] and in test [9] was greater than 100 µM each time.
Consider `COc1ncnc2c1ncn2C/C(Br)=C(\Br)CCl`, for which the GI50 was 10.8 µM in [2]; 17.2 µM in [10]; 2.82 µM in test [3]; 3.16 µM in [4]; 0.875 µM in test [5]; 1.61 µM in test [6]. Moreover, the GI50 in test [7] was 3.01 µM; in test [8], 1.74 µM; in test [9] it was 2.65 µM. Besides, the TGI in test [2] amounted to 25.9 µM; in [10], 31.2 µM; in test [3], 9.38 µM; in test [4], 11.4 µM; in test [5], 2.25 µM; in [6], 3.02 µM. In addition, the figures for the TGI in test [7], in [8] and in [9] were 7.84 µM, 3.64 µM and 12 µM, respectively.
Turning to `CN(C)CC1CCC(CN(C)C)C1=NO` (centres undefined), the TGI in test [2], in test [10], in test [5], in test [6], in [7] and in test [9] was greater than 100 µM each time.
Regarding `C[C@]1(O)CC(=O)[C@]2(O)C3=C(C=C[C@]2(O)C1)C(=O)c1c(O)cccc1C3=O`, the GI50 in [1] was 13 µM; in test [2], 16.3 µM; in test [10] it was 7.59 µM; in [3] it was 1.69 µM; in test [4], 1.94 µM; in test [6], 1.44 µM. In addition, the GI50 in [7] was 2.67 µM; in test [8], 6.02 µM; in test [9], 1.86 µM. In addition, the TGI came to 25.9 µM in test [1]; 38.6 µM in test [2]; 20.7 µM in test [10]; 3.69 µM in test [3]; 4.71 µM in [4]; 2.79 µM in test [6]. The TGI is 7.75 µM in test [7], 21.5 µM in [8] and 3.91 µM in test [9].
